From patent publication US12509437B2, “Substituted thiophene carboxamides and derivatives thereof as microbicides” (Bayer Aktiengesellschaft, priority 2019, dated 2025) come the findings set out here.

Series [1] can be described thus: LogP by HPLC on reversed phase columns (EEC directive 79/831 Annex V.A8). Type of series: physicochemical. The following applies: reversed phase HPLC columns. In outline:
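Reversed-phase HPLC, calibrated with straight-chain alkan-2-ones (C3–C16) of known LogP; values by linear interpolation of retention times between successive alkanones. Multiple values from one method are joined by "+"; lambda-max taken from 200–400 nm UV spectra at chromatographic peaks.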

The test system of series [2] is Pseudomonas syringae pv. tomato. In words: Pseudomonas syringae pv. tomato in vitro cell test. Type of series: cell-based. The following applies: 20 ppm of active ingredient, 24 h of incubation, read-out: efficacy (inhibition of bacteria growth; no direct activity). As to the method:
(§1) • Solvent: DMSO • Culture medium: LB broth medium (Luria Broth Miller) Sigma • Inoculum: bacteria suspension Compounds were solubilized in DMSO and the solution used to prepare the required range of concentrations. The final concentration of DMSO used in the assay was ≤1%. Inoculum was prepared from a pre-culture of bacteria grown in liquid medium and diluted to the desired optical density (OD). Compounds were evaluated for their ability to inhibit bacteria growth in liquid culture assay. The compounds were added in the desired concentrations to culture medium containing the bacteria suspension. After 24 h of incubation, the efficacy of compounds was determined by spectrometric measurement of bacteria growth. Inhibition was determined by comparing the absorbance values in wells containing the compounds with the absorbance in control wells without active ingredients.

The test system of another series is Uromyces appendiculatus. In words: In vivo preventive test on Uromyces appendiculatus (bean rust). The settings on record: 240 h, sprayed 72 hours before inoculation, evaluated 10 days after inoculation, read-out: efficacy; for pest or weed control at 500 ppm: 500 ppm of active ingredient; for pest or weed control at 31 ppm: 31 ppm of active ingredient; for pest or weed control at 125 ppm: 125 ppm of active ingredient. As to the method: (§2) The tested active ingredients were prepared by homogenization in a mixture of acetone/Dimethyl sulfoxide/Tween®, and then diluted with water to obtain the desired active material concentration.
The young plants of bean were treated by spraying the active ingredient prepared as described above. Control plants were treated only with an aqueous solution of acetone/Dimethyl sulfoxide/Tween®.
After 72 hours, the plants were contaminated by spraying the leaves with an aqueous suspension of Uromyces appendiculatus spores. The contaminated bean plants were incubated for 24 hours at 20° C. and at 100% relative humidity and then for 9 days at 20° C. and at 70-80% relative humidity.
The test was evaluated 10 days after the inoculation. 0% means an efficacy which corresponds to that of the control plants while an efficacy of 100% means that no disease was observed.

Series [3] concerns Xanthomonas campestris pv. campestris. In words: Xanthomonas campestris pv. campestris in vitro cell test. Type of series: cell-based. The following applies: 24 h of incubation, read-out: efficacy (inhibition of bacteria growth; no direct activity); for inhibition at 5 ppm: 5 ppm of active ingredient; for inhibition at 20 ppm: 20 ppm of active ingredient. As to the method: as §1

Another series has as its system Alternaria alternata. In words: Alternaria alternata in vitro cell test. It counts as cell-based. The following applies: 120 h, 5 days incubation, read-out: efficacy (inhibition of fungal growth; no direct activity); for inhibition at 5 ppm: 5 ppm of active ingredient; for inhibition at 20 ppm: 20 ppm of active ingredient. As to the method: (§3) • Solvent: DMSO • Culture medium: 14.6 g anhydrous D-glucose (VWR), 7.1 g Mycological Peptone (Oxoid), 1.4 g granulated Yeast Extract (Merck), QSP 1 liter • Inoculum: spores suspension Fungicides were solubilized in DMSO and the solution used to prepare the required range of concentrations. The final concentration of DMSO used in the assay was ≤[…]1%. A spore suspension of A. alternata was prepared and diluted to the desired spore density. Fungicides were evaluated for their ability to inhibit spore germination and mycelium growth in liquid culture assay. The compounds were added in the desired concentration to the culture medium with spores. After 5 days incubation, fungi-toxicity of compounds was determined by spectrometric measurement of mycelium growth. Inhibition of fungal growth was determined by comparing the absorbance values in wells containing the fungicides with the absorbance in control wells without fungicides.

Series [4] relates to Colletotrichum lindemuthianum. In words: Colletotrichum lindemuthianum in vitro cell test. It counts as cell-based. The settings on record: 144 h, 6 days incubation, read-out: efficacy (inhibition of fungal growth; no direct activity); for inhibition at 5 ppm: 5 ppm of active ingredient; for inhibition at 20 ppm: 20 ppm of active ingredient. As to the method: as §3, with “of C. lindemuthianum” for “of A. alternata”, “inhibit spores” for “inhibit spore”, “After 6” for “After 5”

Series [5] concerns salicylate responsive promoter sequence of the PR1 (pathogenesis-related protein I) gene (AT2G14610). In words: Induction of defense gene expression in Arabidopsis thaliana (PR1 promoter-GFP reporter plants). The settings on record: 72 h, 3rd day after spraying, mock treated leaves set as 1.00, read-out: relative fluorescence value. Type of series: in vivo. As to the method:
Arabidopsis thaliana reporter plants containing the coding sequence of a green fluorescent protein (GFP) linked to the salicylate responsive promoter sequence of the PR1 (pathogenesis-related protein I) gene (AT2G14610) were grown for five days and then sprayed with compounds. On the 3rd day after spraying, plant fluorescence was assessed with a MacroFluo instrument from Leica Microsystems (Wetzlar, Germany). Fluorescences were quantified with the Meta-Morph Microscopy Automation & Image Analysis Software (Molecular Devices, Sunnyvale, Calif., United States). Background fluorescence in mock treated leaves was set as 1.00.

A further series has as its system Peronospora parasitica. In words: In vivo preventive test on Peronospora parasitica (Crucifer downy mildew) on cabbage. The following applies: Hyaloperonospora parasitica, 120 h, sprayed 72 hours before inoculation, evaluated 5 days after inoculation, read-out: efficacy; for pest or weed control at 31 ppm: 31 ppm of active ingredient; for pest or weed control at 125 ppm: 125 ppm of active ingredient; for pest or weed control at 500 ppm: 500 ppm of active ingredient. As to the method: as §2
(§4) The young plants of cabbage were treated by spraying the active ingredient prepared as described above. Control plants were treated only with an aqueous solution of acetone/Dimethyl sulfoxide/Tween®.
After 72 hours, the plants were contaminated by spraying the leaves with an aqueous suspension of Peronospora parasitica spores. The contaminated cabbage plants were incubated for 5 days at 20° C. and at 100% relative humidity.
The test was evaluated 5 days after the inoculation. 0% means an efficacy which corresponds to that of the control plants while an efficacy of 100% means that no disease was observed.

Series [6] concerns Xanthomonas campestris pv. campestris. In words: In vivo preventive test on Xanthomonas campestris pv. campestris (black rot on cabbage). The settings on record: Xanthomonas campestris, 500 ppm of active ingredient, sprayed 72 hours before inoculation, evaluated 8 or 10 days after inoculation, read-out: efficacy. As to the method: as §2, §4
After 72 hours, the plants were contaminated by spraying the leaves with an aqueous bacteria suspension of Xanthomonas campestris pv. campestris. The contaminated cabbage plants were incubated for 8 or 10 days at 27° C. at 95% relative humidity.
The test was evaluated 8 or 10 days after the inoculation. 0% means an efficacy which corresponds to that of the control plants while an efficacy of 100% means that no disease was observed.

[7] abbreviates: preparation examples, method not indicated, read-out: Log P.

Like-named read-outs stand apart in the source and are kept apart here.

Compound `COC(=O)C1(NC(=O)c2sc(Br)c(Br)c2C)CCC(F)(F)CC1` [I.005] gave a chromatographic logP in series [1] (method [a]) of 3.83. In addition, the inhibition at 20 ppm (in [2]; in [3]; with Alternaria alternata) was at most 30% each time. The pest or weed control at 500 ppm with Uromyces appendiculatus lay within 90 to 100%. Also, the inhibition at 5 ppm (in series [3]; with Alternaria alternata; in series [4]) was at most 30% each time.

In [1] (method [a]), `COC(=O)C1(NC(=O)c2sc(Br)c(Br)c2C)CSC1` [I.015] registered a chromatographic logP of 3.31. Besides, the inhibition at 20 ppm in series [2], in series [3] and in series [4] was at most 30% each time. In series [5], the fold induction at 75 ppm was above 2. In addition, the fold induction at 300 ppm in series [5] is above 2. The pest or weed control at 31 ppm in the series on Uromyces appendiculatus and in the series with Peronospora parasitica was 90 to 100% throughout. For the same compound, the pest or weed control at 500 ppm with Uromyces appendiculatus and in the series on Peronospora parasitica was 90 to 100% each time. Moreover, the inhibition at 5 ppm (in series [3]; with Alternaria alternata; in [4]) was at most 30% each time. In addition, the pest or weed control at 125 ppm with Peronospora parasitica lay in the range of 90 to 100%.

In the case of `CCOC(=O)C(CC(N)=O)NC(=O)c1sc(Br)c(Br)c1C` (stereo not shown) [I.016], in [1] (method [a]), the chromatographic logP worked out at 2.26. In [2], the inhibition (as a rule, the relative decrease from the control value, in per cent) at 20 ppm is at most 30%. Besides, in series [5], the fold induction at 75 ppm was above 2 and the fold induction at 300 ppm was above 2. For the same compound, in the series on Uromyces appendiculatus, the pest or weed control at 31 ppm fell in the range of 90 to 100%, the pest or weed control at 125 ppm is 90 to 100% and the pest or weed control at 500 ppm was in the range of 80 to 89%. Also, in series [3], the inhibition at 5 ppm is at most 30% and the inhibition at 20 ppm is at most 30%. For the same compound, in the series on Peronospora parasitica, the pest or weed control at 31 ppm is 90 to 100%, the pest or weed control at 125 ppm lay within 90 to 100% and the pest or weed control at 500 ppm lay in the range of 90 to 100%. Besides, in the series with Alternaria alternata, the inhibition at 5 ppm is at most 30% and the inhibition at 20 ppm is at most 30%. In series [4], the inhibition at 5 ppm is at most 30% and the inhibition at 20 ppm was at most 30%.

On to `CCOC(=O)C1(NC(=O)CNC(=O)c2sc(Br)c(Br)c2C)CC1` [I.024, ethyl 1-({N-[(4,5-dibromo-3-methyl-2-thienyl)carbonyl]glycyl}amino)cyclopropanecarboxylate], for which the chromatographic logP in series [1] (setting [7]) amounted to 2.55. In addition, the inhibition at 20 ppm (in series [2]; in series [3]; in the series on Alternaria alternata; in series [4]) was at most 30% each time. The fold induction at 75 ppm in series [5] is above 2. Besides, the inhibition at 5 ppm (in series [3]; in the series on Alternaria alternata; in series [4]) was at most 30% each time.

`CCOC(=O)C(COC)NC(=O)c1sc(Br)c(Br)c1C` (stereo not shown) [I.034] came in with a chromatographic logP in series [1] (method [a]) of 3.46. Also, the inhibition at 20 ppm (in series [2]; in series [3]; in the series with Alternaria alternata) was at most 30% throughout. In [5], the fold induction at 300 ppm is above 2. Also, the pest or weed control at 500 ppm with Uromyces appendiculatus was 90 to 100%; in [6], 80 to 89%. Further, the inhibition at 5 ppm (in series [3]; in the series on Alternaria alternata; in series [4]) was at most 30% throughout.

In turn, `CCOC(=O)CN(C)C(=O)c1sc(Br)c(Br)c1C` [I.056] displayed a chromatographic logP in series [1] (method [a]) of 3.23. Moreover, the inhibition at 20 ppm (in [2]; in series [3]; in the series on Alternaria alternata) was at most 30% in each case. The inhibition at 5 ppm (in series [3]; with Alternaria alternata; in [4]) was at most 30% each time. In the series on Peronospora parasitica, the pest or weed control at 125 ppm was in the range of 80 to 89%. Moreover, in the series with Peronospora parasitica, the pest or weed control at 500 ppm lay within 90 to 100%.

On to `CONC(=O)[C@@H](NC(=O)c1sc(Br)c(Br)c1C)C(C)C` [I.074, N^2-[(4,5-dibromo-3-methyl-2-thienyl)carbonyl]-N-methoxyvalinamide], for which the chromatographic logP in series [1] (setting [7]) came to 2.77. Moreover, the inhibition at 20 ppm (in series [2]; in series [3]; in the series on Alternaria alternata; in [4]) was at most 30% each time. In addition, the fold induction at 300 ppm in series [5] is above 2. The inhibition at 5 ppm (in series [3]; in the series with Alternaria alternata; in series [4]) was at most 30% in each case.

Compound `COC(=O)CC[C@H](NC(=O)c1sc(Br)c(Br)c1C)C(=O)OC` [I.136] had a chromatographic logP in series [1] (method [a]) of 3.17. Moreover, in series [2], the inhibition at 20 ppm was at most 30%. Further, in [5], the fold induction at 75 ppm is above 2 and the fold induction at 300 ppm is above 2. In addition, in the series on Uromyces appendiculatus, the pest or weed control at 31 ppm is 90 to 100%, the pest or weed control at 125 ppm lay within 90 to 100% and the pest or weed control at 500 ppm is 90 to 100%. Further, in [3], the inhibition at 5 ppm was at most 30% and the inhibition at 20 ppm was at most 30%. In addition, in the series with Peronospora parasitica, the pest or weed control at 31 ppm fell in the range of 80 to 89%, the pest or weed control at 125 ppm lay within 90 to 100% and the pest or weed control at 500 ppm lay within 90 to 100%. In the series on Alternaria alternata, the inhibition at 5 ppm is at most 30% and the inhibition at 20 ppm was at most 30%. In series [4], the inhibition at 5 ppm is at most 30% and the inhibition at 20 ppm is at most 30%.
